The results in this text go back to ChEMBL document CHEMBL5346934 (J Med Chem, 2023).

In brackets after ≈: the same amount, converted by molar mass.

Assay [1] deals with Vaccinia virus. Nature of the assay: Antiviral activity against Vaccinia virus IHD-J infected in BSC40 cells assessed as reduction in plaque formation measured after 72 hrs by crystal violet staining based analysis. Format: functional, organism-based. The following applies: Orthopoxvirus vaccinia, BSC-40, 72 h.
The subject of assay [2] is Vaccinia virus. The experiment in a line: Antiviral activity against Vaccinia virus WR-GFP infected in BSC40 cells assessed as reduction in plaque formation measured after 72 hrs by crystal violet staining based analysis. It counts as functional, organism-based. The settings on record: Orthopoxvirus vaccinia, BSC-40, 72 h.
For assay [3], the system named is Ectromelia virus. The experiment in a line: Antiviral activity against ectromelia virus K-1 infected in Vero cells measured after 4 days by colorimetric assay. It counts as functional, organism-based. The following applies: K-1, Vero, 96 h.
In assay [4] the test system is Monkeypox virus. The experiment in a line: Antiviral activity against Monkeypox virus V79-1-005 infected in Vero cells measured after 4 days by colorimetric assay. Format: functional, organism-based. The settings on record: V79-1-005, Vero, 96 h.
Assay [5] relates to Vaccinia virus. Nature of the assay: Antiviral activity against Vaccinia virus infected in Vero cells measured after 4 days by colorimetric assay. It counts as functional, organism-based. The settings on record: Orthopoxvirus vaccinia, 96 h.
Assay [6] relates to Vaccinia virus. The experiment in a line: Antiviral activity against Vaccinia virus Copenhagen infected in African green monkey Vero cells. Format: functional, organism-based. The settings on record: Orthopoxvirus vaccinia.
For assay [7], the system named is Cowpox virus. The experiment in a line: Antiviral activity against Cowpox virus Grishak infected in African green monkey Vero cells. It counts as functional, organism-based.
Assay [8] concerns Ectromelia virus. Nature of the assay: Antiviral activity against ectromelia virus K-1 infected in Vero cells. It counts as functional, organism-based. The settings on record: K-1, Vero.
In assay [9] the test system is Cowpox virus. Nature of the assay: Antiviral activity against Cowpox virus infected in Vero cells measured after 4 days by colorimetric assay. It counts as functional, organism-based. The following applies: 96 h.
In assay [10] the test system is Vaccinia virus. Nature of the assay: Antiviral activity against Vaccinia virus infected in monkey BSC40 cells assessed as reduction in virus-induced cytopathic effect. The following applies: Orthopoxvirus vaccinia, BSC-40. Format: functional, organism-based. On the technique in general: Damage to the host cells serves as the signal in cytopathic effect assays.
For assay [11], the system named is Vaccinia virus. The experiment in a line: Antiviral activity against Vaccinia virus GFP infected in green monkey CV-1 cells assessed as reduction in plaque formation measured after 2.5 days by microscopic analysis. It counts as functional, organism-based. The following applies: Orthopoxvirus vaccinia, CV-1, 60 h.
Assay [12] has as its system Vaccinia virus. Nature of the assay: Antiviral activity against Vaccinia virus GFP infected in green […] cells assessed as reduction in plaque formation measured after 2.5 days by microscopic analysis. The settings on record: Orthopoxvirus vaccinia, HT-1080, 60 h. Format: functional, organism-based.
Assay [13] concerns Vaccinia virus. Nature of the assay: Antiviral activity against Vaccinia virus Copenhagen infected in human HFF cells assessed as assessed as reduction in virus-induced cytopathic effect incubated for 7 days by microscopic analysis. Format: functional, organism-based. The following applies: Orthopoxvirus vaccinia, 168 h.
Assay [14] deals with Variola virus. Nature of the assay: Antiviral activity against Variola virus 7124 infected in monkey LLC-MK2 cells. Format: functional, organism-based. The following applies: Variola virus, 7124, LLC-MK2.
The subject of assay [15] is Vaccinia virus. Nature of the assay: Antiviral activity against Vaccinia virus Copenhagen infected in HFF cells measured after 3 days by colorimetric assay. It counts as functional, organism-based. The following applies: Orthopoxvirus vaccinia, 72 h.
In assay [16] the test system is Cowpox virus. The experiment in a line: Antiviral activity against Cowpox virus Brighton infected in Vero cells measured after 4 days by colorimetric assay. It counts as functional, organism-based. The settings on record: 96 h.
For assay [17], the system named is Monkeypox virus. The experiment in a line: Antiviral activity against Monkeypox virus Zr-599 infected in African green monkey Vero E6 cells assessed as reduction in plaque formation measured after 72 hrs by microscopic analysis. It counts as functional, organism-based. The following applies: Zr-599, Vero C1008, 72 h.
In assay [18] the test system is Vaccinia virus. Nature of the assay: Antiviral activity against Vaccinia virus infected in African green monkey Vero cells assessed as reduction virus induced cytopathic effect incubated for 24 hrs by MTT assay. The following applies: Orthopoxvirus vaccinia. Format: functional, organism-based.
Assay [19] concerns Vaccinia virus. Nature of the assay: Antiviral activity against Vaccinia virus IHD infected in African green monkey Vero cells assessed as reduction in plaque formation measured after 7 days. Format: functional, organism-based. The following applies: Orthopoxvirus vaccinia, 168 h.
Assay [20] relates to Vaccinia virus. The experiment in a line: Antiviral activity against wild type Vaccinia virus IHD infected in monkey Vero cells assessed as reduction in plaque formation measured after 7 days. Format: functional, organism-based. The following applies: Orthopoxvirus vaccinia, 168 h.
The subject of assay [21] is Vaccinia virus. Nature of the assay: Antiviral activity against Vaccinia virus infected in human HFF cells. The following applies: Orthopoxvirus vaccinia. Format: functional, organism-based.
Assay [22] deals with Human alphaherpesvirus 2. Nature of the assay: Antiviral activity against Herpes simplex virus 2. Format: functional, organism-based.
Assay [23] deals with Variola virus. Nature of the assay: Antiviral activity against Variola virus 7124 infected in African green monkey BSC-1 cells. It counts as functional, organism-based. The following applies: Variola virus, 7124, BSC-1.
The test system of assay [24] is Vaccinia virus. The experiment in a line: Antiviral activity against Vaccinia virus Copenhagen infected in human HFF cells assessed as reduction in viral replication measured after 3 days. Format: functional, organism-based. The following applies: Orthopoxvirus vaccinia, 72 h.
For assay [25], the system named is Vaccinia virus. The experiment in a line: Antiviral activity against Cowpox virus Brighton infected in human HFF cells assessed as reduction in viral replication measured after 3 days. It counts as functional, organism-based. The following applies: Orthopoxvirus vaccinia, 72 h.
The test system of assay [26] is Vaccinia virus. Nature of the assay: Antiviral activity against Vaccinia virus infected in African green monkey BSC-1 cells. It counts as functional, organism-based, Orthopoxvirus vaccinia. The following applies: Orthopoxvirus vaccinia, BSC-1.
The test system of assay [27] is Vaccinia virus. The experiment in a line: Antiviral activity against Vaccinia virus VG9 infected in African green monkey BSC-1 cells. It counts as functional, organism-based, Orthopoxvirus vaccinia. The settings on record: Orthopoxvirus vaccinia, VG9, BSC-1.
Assay [28] relates to Cowpox virus. Nature of the assay: Antiviral activity against Cowpox virus infected in African green monkey BSC-1 cells. It counts as functional, organism-based.
The test system of assay [29] is Monkeypox virus. The experiment in a line: Antiviral activity against Monkeypox virus infected in African green monkey BSC-1 cells. Format: functional, organism-based.
For assay [30], the system named is Vaccinia virus. Nature of the assay: Antiviral activity against wild type Vaccinia virus infected in human HFF cells assessed as reduction in viral replication measured after 5 days by microscopic analysis. The following applies: Orthopoxvirus vaccinia, 120 h. It counts as functional, organism-based.
The test system of assay [31] is Vaccinia virus. Nature of the assay: Antiviral activity against Vaccinia virus infected in human HFF cells assessed as reduction in plaque formation measured after 7 days by colorimetric assay. The settings on record: Orthopoxvirus vaccinia, 168 h. It counts as functional, organism-based.
The subject of assay [32] is Vaccinia virus. The experiment in a line: Antiviral activity against Vaccinia virus infected in human HFF cells measured after 4 days by colorimetric assay. It counts as functional, organism-based. The following applies: Orthopoxvirus vaccinia, 96 h.

Take `O=C1CN(C(=O)c2nccs2)C(c2cccc(Cl)c2)c2cc(Br)ccc2N1` (centres undefined): the EC50 (usually the concentration giving half of the maximal effect) in [1] is 500 nM. For the same molecule, in assay [2], the IC50 (as a rule, the concentration that inhibits the measured activity by half) was 1300 nM.

Turning to `O=C(NNC(=O)C1C2C=CC(C3CC23)C1C(=O)O)c1ccccc1O` (centres undefined), the EC50 in [3] worked out at 0.54 µg/mL (≈ 1.58 µM); in assay [4] it was 0.153 µg/mL (≈ 0.447 µM); in [5] it was 0.032 µg/mL (≈ 0.0935 µM).

Turning to `CC1(C)[C@@H]2CC[C@@]1(C)C(NC(=O)c1ccc([N+](=O)[O-])cc1)C2` (some centres undefined), the EC50 in assay [6] is 30 nM; in assay [7], 1400 nM; in assay [8] it was 410 nM.

The molecule `CC(=O)OCC(COC(C)=O)OCn1cnc2c(N)ncnc21` yielded an EC50 in assay [9] of 2000 nM.

As for `COc1ccc(CCNC(=O)c2cc3ccccc3cc2O)cc1-c1ccc([N+](=O)[O-])cc1`, in assay [10], the EC50 was 12000 nM.

As for `O=[N+]([O-])c1cc(/C=N/c2ccccc2/N=C/c2ccc(O)c(O)c2)ccc1O`, the EC50 is 13200 nM in [11] and 10900 nM in assay [12].

As for `Cc1ccnc(NC(c2ccccc2F)c2ccc3cccnc3c2O)c1` (centres undefined), the EC50 in [13] worked out at 2900 nM.

The molecule `Nc1ccn([C@@H]2C=C(CO)[C@@H](O)[C@H]2O)c(=O)n1` returned an EC50 in assay [14] of 30 nM.

Regarding `Cc1cn([C@H]2C[C@H](O)[C@]3(CO)C[C@H]23)c(=O)[nH]c1=O` [(NORTH)-METHANOCARBATHYMIDINE], the figures for the IC50 in assay [15] and in [16] were 550 nM and 1500 nM, respectively.

For `O=C1C(O)=C([C@H]2CC[C@H](c3ccc(Cl)cc3)CC2)C(=O)c2ccccc21` [ATOVAQUONE], the half-maximal effective concentration (EC50) in [17] worked out at 520 nM.

`CCCCCCCCCCCCCCCCOCCCOP(=O)(O)CO[C@H](CO)Cn1ccc(N)nc1=O` [BRINCIDOFOVIR] displayed an EC50 in [16] of 600 nM.

Take `Nc1ccn(C[C@@H](CO)OCP(=O)(O)O)c(=O)n1` [CIDOFOVIR ANHYDROUS]: the EC50 in assay [18] turned out to be 46200 nM; in assay [9], 44700 nM.

Regarding `C=C(CC)C(=O)c1ccc(OCC(=O)O)c(Cl)c1Cl` [ETHACRYNIC ACID], the half-maximal effective concentration (EC50) in [19] stood at 20000 nM; in assay [20] it was 40000 nM.

Turning to `Oc1ccc(Cl)cc1Sc1cc(Cl)ccc1O` [FENTICLOR], the figures for the IC50 in assay [21] and in assay [22] were 5700 nM and 2400 nM, respectively.

Regarding `O[C@H]1[C@H]2c3cc4c(cc3CN3CCC(=C[C@@H]1O)[C@H]23)OCO4` [LYCORINE], the EC50 in assay [23] is 5000 nM.

For `OC(c1cc(C(F)(F)F)nc2c(C(F)(F)F)cccc12)C1CCCCN1` (centres undefined) [MEFLOQUINE], the EC50 in assay [17] was 5190 nM.

Regarding `CN1C(=O)/C(=N\NC(N)=S)c2ccccc21` [METHISAZONE], the EC50 turned out to be 3300 nM in assay [24] and 14000 nM in assay [25].

Turning to `O=C1c2c(O)ccc(O)c2C(=O)c2c(NCCNCCO)ccc(NCCNCCO)c21` [MITOXANTRONE], the EC50 in assay [23] was determined as 250 nM; in assay [26] it was 500 nM; in assay [27] it was 700 nM; in assay [28] it was 250 nM; in assay [29], 800 nM.

As to `CC(C)C(=O)OC[C@H]1O[C@@H](n2cc/c(=N\O)[nH]c2=O)[C@H](O)[C@@H]1O` [MOLNUPIRAVIR], the EC50 in [17] came out at 1350 nM.

Consider `Nc1ncnc2c1ncn2[C@@H]1C=C(CO)[C@@H](O)[C@H]1O` [NEOPLANOCIN A], for which the response in assay [14] was half-maximal at 100 nM (EC50).

As for `CC(=O)Oc1ccccc1C(=O)Nc1ncc([N+](=O)[O-])s1` [NITAZOXANIDE], the EC50 in [30] turned out to be 1950 nM.

On to `CC[C@H](CO)Nc1nc(NCc2ccccc2O)c2ncn(C(C)C)c2n1` [OLOMOUCINE II], for which the EC50 in [31] was determined as 3800 nM.

`CO[C@H]1/C=C/O[C@@]2(C)Oc3c(C)c(O)c4c(O)c(c(/C=N/N5CCN(C)CC5)c(O)c4c3C2=O)NC(=O)/C(C)=C\C=C\[C@H](C)[C@H](O)[C@@H](C)[C@@H](O)[C@@H](C)[C@H](OC(C)=O)[C@@H]1C` [RIFAMPIN] gave an IC50 in [21] of about 100 µg/mL.

With `NC(=O)c1cn([C@@H]2O[C@H](CO)[C@@H](O)[C@H]2O)c2ncnc(N)c12` [SANGIVAMYCIN], the EC50 in assay [32] is 65 nM.
